According to patent publication US20260354380A1, “PYRAZOLO PESTICIDAL COMPOUNDS” (BASF SE, priority 2022, published 2026):

Experiments:
Format in all cases: in vivo
[1] = system: Anthonomus grandis; assay: Action on Boll Weevil (Anthonomus grandis); details: 800 ppm; egg and larval mortality; 5 days
Procedure: Example B3: Action on Boll Weevil (Anthonomus grandis)
For evaluating control of boll weevil (Anthonomus grandis) the test unit consisted of 96-well-microtiter plates containing an insect diet and 5-10 A. grandis eggs.
The compounds were formulated using a solution containing 75% (v/v) water and 25% (v/v) DMSO. Different concentrations of formulated compounds were sprayed onto the insect diet at 5 μl, using a custom-built micro atomizer, at two replications.
After application, microtiter plates were incubated at about 25±1 °C and about 75±5% relative humidity for 5 days. Egg and larval mortality were then visually assessed.

[2] = system: Heliothis virescens; assay: Action on Tobacco Budworm (Heliothis virescens); details: 800 ppm; egg and larval mortality; 5 days
Procedure: Example B5: Action on Tobacco Budworm (Heliothis virescens)
For evaluating control of tobacco budworm (Heliothis virescens) the test unit consisted of 96-well-microtiter plates containing an insect diet and 15-25 H. virescens eggs.
The compounds were formulated using a solution containing 75% v/v water and 25% v/v DMSO. Different concentrations of formulated compounds were sprayed onto the insect diet at 10 μl, using a custom-built micro atomizer, at two replications.
After application, microtiter plates were incubated at about 28±1 °C and about 80±5% relative humidity for 5 days. Egg and larval mortality were then visually assessed.

[3] = system: Plutella xylostella; assay: Action on Diamond Back Moth (Plutella xylostella), cabbage leaf dip, 3rd instar larvae; details: 300 ppm; 3rd instar larvae; 72 hours after treatment
Procedure: Example B6: Action on Diamond Back Moth (Plutella xylostella)
The active compound is dissolved at the desired concentration in a mixture of 1:1 (v/v) distilled water:acetone. Surfactant (Kinetic® HV) is added at a rate of 0.01% (v/v). The test solution is prepared at the day of use.
Leaves of cabbage were dipped in test solution and air-dried. Treated leaves were placed in petri dishes lined with moist filter paper and inoculated with ten 3rd instar larvae. Mortality was recorded 72 hours after treatment. Feeding damages were also recorded using a scale of 0-100%.
(§1) Compounds disclosed in the document WO2021013561 were prepared according to procedures described therein and their pesticidal activities were determined by procedure analogues to the procedures as described above in examples B6 and B7.

[4] = system: Spodoptera eridania; assay: Action on Southern Armyworm (Spodoptera eridania), 2nd Instar Larvae; details: 300 ppm; 2nd instar larvae; 4 days after treatment
Procedure: Example B7: Action on Southern Armyworm (Spodoptera eridania), 2nd Instar Larvae
The active compounds were formulated by a Tecan liquid handler in 100% cyclohexanone as a 10,000 ppm solution supplied in tubes. The 10,000 ppm solution was serially diluted in 100% cyclohexanone to make interim solutions. These served as stock solutions for which final dilutions were made by the Tecan in 50% acetone: 50% water (v/v) into 10 or 20 ml glass vials. A nonionic surfactant (Kinetic®) was included in the solution at a volume of 0.01% (v/v). The vials were then inserted into an automated electrostatic sprayer equipped with an atomizing nozzle for application to plants/insects.
Lima bean plants (variety Sieva) were grown 2 plants to a pot and selected for treatment at the 1st true leaf stage. Test solutions were sprayed onto the foliage by an automated electrostatic plant sprayer equipped with an atomizing spray nozzle. The plants were dried in the sprayer fume hood and then removed from the sprayer. Each pot was placed into perforated plastic bags with a zip closure. About 10 to 11 armyworm larvae were placed into the bag and the bags zipped closed. Test plants were maintained in a growth room at about 25 °C and about 20-40% relative humidity for 4 days, avoiding direct exposure to fluorescent light (24 hour photoperiod) to prevent trapping of heat inside the bags. Mortality and reduced feeding were assessed 4 days after treatment, compared to untreated control plants.
as §1

[5] = system: Aedes aegypti; assay: whole plant or invertebrate; details: 800 ppm; larvae; 2 days
Procedure: Example B1: Action on Yellow Fever Mosquito (Aedes aegypti)
For evaluating control of yellow fever mosquito (Aedes aegypti) the test unit consisted of 96-well-microtiter plates containing 200 μl of tap water per well and 5-15 freshly hatched A. aegypti larvae.
The active compounds or mixtures were formulated using a solution containing 75% (v/V) water and 25% (v/v) DMSO. Different concentrations of formulated compounds or mixtures were sprayed onto the insect diet at 2.5 μl, using a custom-built micro atomizer, at two replications. For experimental mixtures in these tests identical volumes of both mixing partners at the desired concentrations respectively, were mixed together.
After application, microtiter plates were incubated at 28±1 °C, 80±5% RH for 2 days. Larval mortality was then visually assessed.

Row | SMILES | mortality in comparison with untreated controls [1] | mortality in comparison with untreated controls [2] | mortality in comparison with untreated controls [3] | mortality in comparison with untreated controls [4] | mortality in comparison with untreated controls [5]
1 | Cc1ccc(C(C)C)c(N2C(=O)CSC2=NC(=O)Nc2ccc(-n3cc(NC(=O)c4ccc(C5(F)COC5)cc4)c(C)n3)cc2)c1 [Example C-77] | at least 75% | at least 75% | at least 75% | – | –
2 | Cc1ccc(C(C)C)c(N2C(=O)CSC2=NC(=O)Nc2ccc(-n3cc(NC(=O)c4ccc(Cl)cc4Cl)c(C)n3)cc2Cl)c1 [Example C-132] | – | – | – | at least 75% | –
3 | Cc1ccc(C(C)C)c(N2C(=O)CSC2=NC(=O)Nc2ccc(-n3cc(NC(=O)c4ccc(C5CC5(Cl)Cl)cc4)c(C)n3)cc2)c1 (racemic) [Example C-89] | – | at least 75% | at least 75% | at least 75% | –
4 | Cc1ccc(C(C)C)c(N2C(=O)CSC2=NC(=O)Nc2ccc(-n3cc(NC(=O)c4ccc(S(C)(=O)=O)cc4F)c(C)n3)cc2)c1 [Example C-91] | at least 75% | at least 75% | at least 75% | at least 75% | –
5 | Cc1ccc(C(C)C)c(N2C(=O)CS/C2=N\C(=O)Nc2ccc(-n3cc(NC(=O)c4ccc(C#N)cc4)c(C)n3)cc2)c1 [Example C-33] | at least 75% | at least 75% | at least 75% | at least 75% | –
6 | Cc1ccc(C(C)C)c(N2C(=O)CSC2=NC(=O)Nc2ccc(-n3cc(NC(=O)c4ccc(C5(C#N)CC5)cc4)c(C)n3)cc2)c1 [Example C-86] | – | at least 75% | at least 75% | at least 75% | –
7 | Cc1ccc(C(C)C)c(N2C(=O)CSC2=NC(=O)Nc2ccc(-n3cc(NC(=O)c4ccc(C5(C)COC5)cc4)c(C)n3)cc2)c1 [Example C-92] | at least 75% | at least 75% | at least 75% | – | –
8 | Cc1ccc(C(C)C)c(N2C(=O)CSC2=NC(=O)Nc2ccc(-n3nc(C)c(NC(=O)c4ccc(F)cc4)c3C)cc2Cl)c1 [Example C-124] | – | – | – | at least 75% | –
9 | Cc1ccc(C(C)C)c(N2C(=O)CSC2=NC(=O)Nc2ccc(-n3cc(NC(=O)c4ccc(C#N)nc4)c(C)n3)cc2)c1 [Example C-90] | at least 75% | – | at least 75% | – | –
10 | Cc1ccc(C(C)C)c(N2C(=O)CSC2=NC(=O)Nc2ccc(-n3cc(NC(=O)c4ccc(CC#N)cc4)c(C)n3)cc2)c1 [Example C-78] | at least 75% | at least 75% | at least 75% | at least 75% | –
11 | Cc1ccc(C(C)C)c(N2C(=O)CSC2=NC(=O)Nc2ccc(-n3cc(NC(=O)c4cnc(C#N)nc4)c(C)n3)cc2)c1 [Example C-84] | – | – | at least 75% | – | –
12 | CCc1ccc(C(=O)Nc2cn(-c3ccc(NC(=O)N=C4SCC(=O)N4c4cc(C)ccc4C(C)C)cc3)nc2C)cc1 [Example C-80] | at least 75% | at least 75% | at least 75% | – | at least 50%
13 | CSc1ccc(C(=O)Nc2cn(-c3ccc(NC(=O)N=C4SCC(=O)N4c4cc(C)ccc4C(C)C)cc3)nc2C)cc1 [Example C-83] | at least 75% | at least 75% | at least 75% | – | at least 50%
14 | Cc1ccc(C(C)C)c(N2C(=O)CSC2=NC(=O)Nc2ccc(-n3cc(NC(=O)c4ccc(N(C)C)cc4)c(C)n3)cc2)c1 [Example C-75] | at least 75% | at least 75% | at least 75% | at least 75% | –
15 | Cc1ccc(C(C)C)c(N2C(=O)CSC2=NC(=O)Nc2ccc(-n3cc(NC(=O)c4ccc(OCC#N)cc4)c(C)n3)cc2)c1 [Example C-76] | at least 75% | at least 75% | at least 75% | at least 75% | –
16 | Cc1ccc(C(C)C)c(N2C(=O)CSC2=NC(=O)Nc2ccc(-n3cc(NC(=O)c4ccc(OC(F)(F)F)cc4)c(C)n3)cc2Cl)c1 [Example C-131] | – | – | – | at least 75% | –
17 | C#CCOc1ccc(C(=O)Nc2cn(-c3ccc(NC(=O)N=C4SCC(=O)N4c4cc(C)ccc4C(C)C)cc3)nc2C)cc1 [Example C-67] | – | at least 75% | at least 75% | at least 75% | at least 50%
18 | COC(C)(C)c1ccc(C(=O)Nc2cn(-c3ccc(NC(=O)N=C4SCC(=O)N4c4cc(C)ccc4C(C)C)cc3)nc2C)cc1 [Example C-61] | – | at least 75% | at least 75% | – | –
19 | C=Cc1ccc(C(=O)Nc2cn(-c3ccc(NC(=O)N=C4SCC(=O)N4c4cc(C)ccc4C(C)C)cc3)nc2C)cc1 [Example C-87] | at least 75% | at least 75% | at least 75% | – | at least 50%
20 | Cc1ccc(C(C)C)c(N/C(=N/C(=O)Nc2ccc(-n3cc(NC(=O)c4ccc(OC(F)(F)F)cc4)c(C)n3)cc2)SCOC(=O)C(C)C)c1 [Example C-129] | at least 75% | at least 75% | at least 75% | – | at least 50%
21 | CC(=O)c1ccc(C(=O)Nc2cn(-c3ccc(NC(=O)N=C4SCC(=O)N4c4cc(C)ccc4C(C)C)cc3)nc2C)cc1 [Example C-69] | – | – | – | at least 75% | –
22 | CCOc1ccc(C(=O)Nc2cn(-c3ccc(NC(=O)N=C4SCC(=O)N4c4cc(C)ccc4C(C)C)cc3)nc2C)cc1 [Example C-85] | – | at least 75% | at least 75% | at least 75% | –
23 | Cc1ccc(C(C)C)c(N2C(=O)CSC2=NC(=O)Nc2ccc(-n3cc(NC(=O)c4ccc(C#CC5CC5)cc4)c(C)n3)cc2)c1 [Example C-72] | – | at least 75% | – | – | –
24 | Cc1ccc(C(C)C)c(N2C(=O)CSC2=NC(=O)Nc2ccc(-n3cc(NC(=O)c4ccc(C(C)C)cc4)c(C)n3)cc2)c1 [Example C-70] | – | at least 75% | at least 75% | – | at least 50%
